{
  "source": "paper PMC5218480",
  "about": "(PLoS ONE, 2017)",
  "tested_on": "MV-4-11 cells",
  "assay": "Gene expression microarray analysis (Affymetrix PrimeView) and GSEA",
  "assay_type": "cell-based, human",
  "set-up": "RFU PODN (11730768_x_at) / Fold change /veh PODN (11730768_x_at) / RFU LINC00158 (11744669_a_at) / Fold change /veh LINC00158 (11744669_a_at) / RFU DUSP10 (11751237_a_at) / Fold change /veh DUSP10 (11751237_a_at) / RFU ID3 (11757404_x_at) / Fold change /veh ID3 (11757404_x_at) / RFU PLEKHG5 (11737974_s_at) / Fold change /veh PLEKHG5 (11737974_s_at) / RFU LRRC4B (11730491_at) / Fold change /veh LRRC4B (11730491_at) / RFU GIMAP4 (11747438_a_at) / Fold change /veh GIMAP4 (11747438_a_at) / RFU KRT8 (11758183_x_at) / Fold change /veh KRT8 (11758183_x_at) / RFU CNN1 (11734310_a_at) / Fold change /veh CNN1 (11734310_a_at) / RFU VPS37D (11726825_at) / Fold change /veh VPS37D (11726825_at) / RFU C10orf10 (11716522_x_at) / Fold change /veh C10orf10 (11716522_x_at) / RFU KIR2DL2 /// KIR2DL4 /// KIR2DL5A /// KIR2DL5B /// KIR2DS1 /// KIR2DS2 /// KIR2DS3 /// KIR2DS4 /// KIR3DL3 /// KIR3DL3 /// KIR3DS1 (11738374_at) / Fold change /veh KIR2DL2 /// KIR2DL4 /// KIR2DL5A /// KIR2DL5B /// KIR2DS1 /// KIR2DS2 /// KIR2DS3 /// KIR2DS4 /// KIR3DL3 /// KIR3DL3 /// KIR3DS1 (11738374_at) / RFU C1QL1 (11718748_at) / Fold change /veh C1QL1 (11718748_at) / RFU TMPRSS4 (11747572_a_at) / Fold change /veh TMPRSS4 (11747572_a_at) / RFU HAMP (11756126_x_at) / Fold change /veh HAMP (11756126_x_at) / RFU RNFT2 (11725882_a_at) / Fold change /veh RNFT2 (11725882_a_at) / RFU NR4A2 (11747474_a_at) / Fold change /veh NR4A2 (11747474_a_at) / RFU ABCC12 (11746883_a_at) / Fold change /veh ABCC12 (11746883_a_at) / RFU TMEM136 (11760407_x_at) / Fold change /veh TMEM136 (11760407_x_at) / RFU CLDN22 /// WWC2 (11732394_at) / Fold change /veh CLDN22 /// WWC2 (11732394_at) / RFU HLA-DPB1 (11760878_x_at) / Fold change /veh HLA-DPB1 (11760878_x_at) / RFU SPINT1 (11716480_a_at) / Fold change /veh SPINT1 (11716480_a_at) / RFU GAP43 (11754022_s_at) / Fold change /veh GAP43 (11754022_s_at) / RFU A4GNT (11735810_at) / Fold change /veh A4GNT (11735810_at) / RFU PRB3 (11715151_x_at) / Fold change /veh PRB3 (11715151_x_at) / RFU TUBB4B (11761932_at) / Fold change /veh TUBB4B (11761932_at) / RFU CAPN14 (11732068_a_at) / Fold change /veh CAPN14 (11732068_a_at) / RFU TMCC2 (11721928_a_at) / Fold change /veh TMCC2 (11721928_a_at) / RFU IRGQ (11745062_a_at) / Fold change /veh IRGQ (11745062_a_at) / RFU FAM174B (11720279_a_at) / Fold change /veh FAM174B (11720279_a_at) / RFU TMPRSS4 (11748680_a_at) / Fold change /veh TMPRSS4 (11748680_a_at) / RFU FAM212B (11763350_a_at) / Fold change /veh FAM212B (11763350_a_at) / RFU PLEKHG5 (11743358_a_at) / Fold change /veh PLEKHG5 (11743358_a_at) / RFU ZSCAN30 (11745921_a_at) / Fold change /veh ZSCAN30 (11745921_a_at) / RFU CMKLR1 (11741424_a_at) / Fold change /veh CMKLR1 (11741424_a_at) / RFU LOC101060620 /// MAPK8IP1 (11723275_at) / Fold change /veh LOC101060620 /// MAPK8IP1 (11723275_at) / RFU SPTSSB (11747773_x_at) / Fold change /veh SPTSSB (11747773_x_at) / RFU PRSS12 (11739890_at) / Fold change /veh PRSS12 (11739890_at) / RFU BIN1 (11741810_x_at) / Fold change /veh BIN1 (11741810_x_at) / RFU WNT11 (11732464_a_at) / Fold change /veh WNT11 (11732464_a_at) / RFU C10orf10 (11716521_a_at) / Fold change /veh C10orf10 (11716521_a_at) / RFU C5orf56 (11738089_at) / Fold change /veh C5orf56 (11738089_at) / RFU CYB561 (11721691_x_at) / Fold change /veh CYB561 (11721691_x_at) / RFU ANKRD19P (11752326_a_at) / Fold change /veh ANKRD19P (11752326_a_at) / RFU OR2T12 /// OR2T33 /// OR2T8 (11738714_s_at) / Fold change /veh OR2T12 /// OR2T33 /// OR2T8 (11738714_s_at) / RFU VCAN (11748164_a_at) / Fold change /veh VCAN (11748164_a_at) / RFU JSRP1 (11732532_at) / Fold change /veh JSRP1 (11732532_at) / RFU KRTAP10-11 (11738290_x_at) / Fold change /veh KRTAP10-11 (11738290_x_at) / RFU MYO3A (11730013_a_at) / Fold change /veh MYO3A (11730013_a_at) / RFU EBF3 (11725865_a_at) / Fold change /veh EBF3 (11725865_a_at) / RFU CAMK2N1 (11719241_x_at) / Fold change /veh CAMK2N1 (11719241_x_at) / RFU C5orf56 (11738088_a_at) / Fold change /veh C5orf56 (11738088_a_at) / RFU OLFML3 (11715873_a_at) / Fold change /veh OLFML3 (11715873_a_at) / RFU LOC100653217 /// NTM (11731650_a_at) / Fold change /veh LOC100653217 /// NTM (11731650_a_at) / RFU MAPK11 (11762145_a_at) / Fold change /veh MAPK11 (11762145_a_at) / RFU FIZ1 (11724087_x_at) / Fold change /veh FIZ1 (11724087_x_at) / RFU OASL (11726364_x_at) / Fold change /veh OASL (11726364_x_at) / RFU SOX15 (11748057_x_at) / Fold change /veh SOX15 (11748057_x_at) / RFU CD79A (11719716_a_at) / Fold change /veh CD79A (11719716_a_at) / RFU HIST1H1D (11736915_at) / Fold change /veh HIST1H1D (11736915_at) / RFU CASKIN2 (11723855_a_at) / Fold change /veh CASKIN2 (11723855_a_at) / RFU LOC730098 (11760151_x_at) / Fold change /veh LOC730098 (11760151_x_at) / RFU OR4N2 (11742367_at) / Fold change /veh OR4N2 (11742367_at) / RFU PRRT2 (11749266_a_at) / Fold change /veh PRRT2 (11749266_a_at) / RFU SNX32 (11753110_a_at) / Fold change /veh SNX32 (11753110_a_at) / RFU CDHR5 (11726645_a_at) / Fold change /veh CDHR5 (11726645_a_at) / RFU RCAN1 (11760418_a_at) / Fold change /veh RCAN1 (11760418_a_at) / RFU FAM167A (11723789_a_at) / Fold change /veh FAM167A (11723789_a_at) / RFU FAM26E (11764081_at) / Fold change /veh FAM26E (11764081_at) / RFU ISYNA1 (11749810_s_at) / Fold change /veh ISYNA1 (11749810_s_at) / RFU ACY1 (11761880_at) / Fold change /veh ACY1 (11761880_at) / RFU 11764098_at / Fold change /veh 11764098_at / RFU SAMD14 (11745864_x_at) / Fold change /veh SAMD14 (11745864_x_at) / RFU NPB (11741838_a_at) / Fold change /veh NPB (11741838_a_at) / RFU TMPRSS6 (11731388_a_at) / Fold change /veh TMPRSS6 (11731388_a_at) / RFU KRTAP10-2 (11738614_at) / Fold change /veh KRTAP10-2 (11738614_at) / RFU ARHGAP8 /// PRR5-ARHGAP8 (11727945_x_at) / Fold change /veh ARHGAP8 /// PRR5-ARHGAP8 (11727945_x_at) / RFU KRTAP5-7 /// NADSYN1 (11734609_at) / Fold change /veh KRTAP5-7 /// NADSYN1 (11734609_at) / RFU RASL12 (11751679_a_at) / Fold change /veh RASL12 (11751679_a_at) / RFU CDKN2B (11736163_a_at) / Fold change /veh CDKN2B (11736163_a_at) / RFU PRF1 (11729649_at) / Fold change /veh PRF1 (11729649_at) / RFU, ZNF638 /// ZNF638-IT1 / Fold change vs veh, ZNF638 /// ZNF638-IT1 / RFU, PANK3 / Fold change vs veh, PANK3 / RFU, SH3YL1 / Fold change vs veh, SH3YL1 / RFU, ZEB2 / Fold change vs veh, ZEB2 / RFU, NRIP1 / Fold change vs veh, NRIP1 / RFU, PTTG1IP / Fold change vs veh, PTTG1IP / RFU, CAPN2 / Fold change vs veh, CAPN2 / RFU, MED14 / Fold change vs veh, MED14 / RFU, SNORA58 / Fold change vs veh, SNORA58 / RFU, C1orf63 / Fold change vs veh, C1orf63 / RFU, LRRFIP1 / Fold change vs veh, LRRFIP1 / RFU, NDUFAF7 / Fold change vs veh, NDUFAF7 / RFU, SLC12A2 / Fold change vs veh, SLC12A2 / RFU, IBTK / Fold change vs veh, IBTK / RFU, ESF1 / Fold change vs veh, ESF1 / Fold change vs veh, TMEM50B / RFU, TAOK1 / Fold change vs veh, TAOK1 / RFU, ACBD3 / Fold change vs veh, ACBD3 / RFU, TMA16 / Fold change vs veh, TMA16 / RFU, RWDD3 / Fold change vs veh, RWDD3 / RFU, BCAT1 / Fold change vs veh, BCAT1 / RFU, EDEM3 / Fold change vs veh, EDEM3 / RFU, TMEM33 / Fold change vs veh, TMEM33 / RFU, WDR75 / Fold change vs veh, WDR75 / RFU, AHCTF1 / Fold change vs veh, AHCTF1 / RFU, TFRC / Fold change vs veh, TFRC / RFU, ZDHHC17 / Fold change vs veh, ZDHHC17 / RFU, NOM1 / Fold change vs veh, NOM1 / RFU, ARL8B / Fold change vs veh, ARL8B / RFU, ZBTB11 / Fold change vs veh, ZBTB11 / RFU, TAMM41 / Fold change vs veh, TAMM41 / RFU, KIAA1704 /// LOC100996395 / Fold change vs veh, KIAA1704 /// LOC100996395 / RFU, ING1 / Fold change vs veh, ING1 / RFU, TRMT61B / Fold change vs veh, TRMT61B / RFU, FUBP3 / Fold change vs veh, FUBP3 / RFU, TP53 / Fold change vs veh, TP53 / RFU, TNKS2 / Fold change vs veh, TNKS2 / RFU, ZFP14 / Fold change vs veh, ZFP14 / RFU, ACTR2 / Fold change vs veh, ACTR2 / RFU, PPP3R1 / Fold change vs veh, PPP3R1 / RFU, PIK3R1 / Fold change vs veh, PIK3R1 / RFU, HNRNPA1 / Fold change vs veh, HNRNPA1 / RFU, RNF170 / Fold change vs veh, RNF170 / RFU, ZNF28 / Fold change vs veh, ZNF28 / RFU, RNGTT / Fold change vs veh, RNGTT / RFU, OGT / Fold change vs veh, OGT / RFU, BRD1 / Fold change vs veh, BRD1 / RFU, MARS / Fold change vs veh, MARS / RFU, ZNF655 / Fold change vs veh, ZNF655 / RFU, FAHD1 / Fold change vs veh, FAHD1 / RFU, BDP1 / Fold change vs veh, BDP1 / RFU, LRRCC1 / Fold change vs veh, LRRCC1 / RFU, ARID1A / Fold change vs veh, ARID1A / RFU, ZNF146 / Fold change vs veh, ZNF146 / RFU, ZNF330 / Fold change vs veh, ZNF330 / RFU, GPN3 / Fold change vs veh, GPN3 / RFU, C9orf123 / Fold change vs veh, C9orf123 / RFU, N4BP2L2 / Fold change vs veh, N4BP2L2 / RFU, ARFIP1 / Fold change vs veh, ARFIP1 / RFU, FAM179B / Fold change vs veh, FAM179B / RFU, BCL10 / Fold change vs veh, BCL10 / RFU, UHRF1BP1L / Fold change vs veh, UHRF1BP1L / RFU, BET1 / Fold change vs veh, BET1 / RFU, CNOT2 / Fold change vs veh, CNOT2 / RFU, ZNF268 / Fold change vs veh, ZNF268 / Fold change vs veh, ZNF507 / RFU, DGCR2 / Fold change vs veh, DGCR2 / RFU, WDSUB1 / Fold change vs veh, WDSUB1 / Fold change vs veh, HSP90B1 /// MIR3652 / RFU, ADSS / Fold change vs veh, ADSS / RFU, GK / Fold change vs veh, GK / RFU, ZNF148 / Fold change vs veh, ZNF148 / RFU, TAF9 / Fold change vs veh, TAF9 / RFU, SLC1A5 / Fold change vs veh, SLC1A5 / RFU, SLMO2 / Fold change vs veh, SLMO2 / RFU, ABCC4 / Fold change vs veh, ABCC4 / RFU, LOC101060439 /// RAP1B / Fold change vs veh, LOC101060439 /// RAP1B / RFU, RFX7 / Fold change vs veh, RFX7 / RFU, GTPBP10 / Fold change vs veh, GTPBP10 / RFU, CNEP1R1 / Fold change vs veh, CNEP1R1 / RFU, BIVM-ERCC5 /// ERCC5 / Fold change vs veh, BIVM-ERCC5 /// ERCC5 / RFU, ILF3 / Fold change vs veh, ILF3 / RFU 11762660_at / Fold change /veh 11762660_at / RFU VCAN (11757783_s_at) / Fold change /veh VCAN (11757783_s_at) / RFU DDX43 (11728927_at) / Fold change /veh DDX43 (11728927_at) / RFU KRT8 (11758188_x_at) / Fold change /veh KRT8 (11758188_x_at) / RFU NKD1 (11759106_at) / Fold change /veh NKD1 (11759106_at) / RFU SRD5A1 (11742802_a_at) / Fold change /veh SRD5A1 (11742802_a_at) / RFU TPSAB1 /// TPSB2 (11721975_s_at) / Fold change /veh TPSAB1 /// TPSB2 (11721975_s_at) / RFU GSTM3 (11746129_a_at) / Fold change /veh GSTM3 (11746129_a_at) / RFU IL23R (11737362_x_at) / Fold change /veh IL23R (11737362_x_at) / RFU TMEM51 (11727254_a_at) / Fold change /veh TMEM51 (11727254_a_at) / RFU PIWIL2 (11732686_x_at) / Fold change /veh PIWIL2 (11732686_x_at) / RFU ORM1 (11744905_x_at) / Fold change /veh ORM1 (11744905_x_at) / RFU CCDC152 (11743942_at) / Fold change /veh CCDC152 (11743942_at) / RFU ECM1 (11717891_a_at) / Fold change /veh ECM1 (11717891_a_at) / RFU IL23R (11748794_a_at) / Fold change /veh IL23R (11748794_a_at) / RFU TNFAIP8L3 (11732012_x_at) / Fold change /veh TNFAIP8L3 (11732012_x_at) / RFU MBOAT4 (11741988_at) / Fold change /veh MBOAT4 (11741988_at) / RFU 11764193_at / Fold change /veh 11764193_at / RFU TMEM53 (11763286_at) / Fold change /veh TMEM53 (11763286_at) / RFU MAGEB2 (11727129_at) / Fold change /veh MAGEB2 (11727129_at) / RFU TMEM200A (11744735_a_at) / Fold change /veh TMEM200A (11744735_a_at) / RFU CCDC152 (11751479_a_at) / Fold change /veh CCDC152 (11751479_a_at) / RFU FAM211A (11726209_a_at) / Fold change /veh FAM211A (11726209_a_at) / RFU RGS16 (11746705_a_at) / Fold change /veh RGS16 (11746705_a_at) / RFU VCAN (11755009_s_at) / Fold change /veh VCAN (11755009_s_at) / RFU RHOB (11743442_s_at) / Fold change /veh RHOB (11743442_s_at) / RFU RGS16 (11720943_a_at) / Fold change /veh RGS16 (11720943_a_at) / RFU RGS16 (11720944_at) / Fold change /veh RGS16 (11720944_at) / RFU, VPS4B / Fold change vs veh, VPS4B / RFU, CREB1 / Fold change vs veh, CREB1 / RFU, DNAJC13 / Fold change vs veh, DNAJC13 / RFU, GNAQ / Fold change vs veh, GNAQ / RFU, CDK5R1 / Fold change vs veh, CDK5R1 / RFU, ZRANB3 / Fold change vs veh, ZRANB3 / RFU, CUL4A / Fold change vs veh, CUL4A / RFU, CCNY / Fold change vs veh, CCNY / RFU, UFL1 / Fold change vs veh, UFL1 / RFU, COG3 / Fold change vs veh, COG3 / RFU, DIAPH2 / Fold change vs veh, DIAPH2 / RFU, SKA2 / Fold change vs veh, SKA2 / RFU, AFF3 / Fold change vs veh, AFF3 / RFU, LMF1 / Fold change vs veh, LMF1 / RFU, IPO11 / Fold change vs veh, IPO11 / RFU, DFFB / Fold change vs veh, DFFB / RFU, FOXP1 / Fold change vs veh, FOXP1 / RFU, CARD8 / Fold change vs veh, CARD8 / RFU, STRN3 / Fold change vs veh, STRN3 / RFU, ADK / Fold change vs veh, ADK / RFU, RASSF2 / Fold change vs veh, RASSF2 / RFU, WIPF1 / Fold change vs veh, WIPF1 / RFU, LARP1B / Fold change vs veh, LARP1B / RFU, RASA1 / Fold change vs veh, RASA1 / RFU, RB1 / Fold change vs veh, RB1 / RFU, PPFIA1 / Fold change vs veh, PPFIA1 / RFU, MAT2A / Fold change vs veh, MAT2A / RFU, CCT5 / Fold change vs veh, CCT5 / RFU, WDR92 / Fold change vs veh, WDR92 / RFU, CUX1 / Fold change vs veh, CUX1 / RFU, TTC7A / Fold change vs veh, TTC7A / RFU, TMEM135 / Fold change vs veh, TMEM135 / RFU, DEPTOR / Fold change vs veh, DEPTOR / RFU, CPM / Fold change vs veh, CPM / RFU, DNAJB6 / Fold change vs veh, DNAJB6 / RFU, CACNA2D3 / Fold change vs veh, CACNA2D3 / RFU, DTX4 / Fold change vs veh, DTX4 / RFU, TFCP2 / Fold change vs veh, TFCP2 / RFU, GMCL1 /// GMCL1P1 / Fold change vs veh, GMCL1 /// GMCL1P1 / RFU, AEBP2 / Fold change vs veh, AEBP2 / RFU, SNHG1 /// SNORD22 /// SNORD25 /// SNORD26 /// SNORD27 /// SNORD28 /// SNORD29 /// SNORD31 / Fold change vs veh, SNHG1 /// SNORD22 /// SNORD25 /// SNORD26 /// SNORD27 /// SNORD28 /// SNORD29 /// SNORD31 / Fold change (Aza/veh), C12orf56 (ProbeSet 11735607_a_at) / Fold change (ACY-1035/veh), C12orf56 (ProbeSet 11735607_a_at) / Fold change (Aza/veh), FGFR1OP (ProbeSet 11751329_s_at) / Fold change (ACY-1035/veh), FGFR1OP (ProbeSet 11751329_s_at) / Fold change (Aza/veh), VPS36 (ProbeSet 11739960_a_at) / Fold change (ACY-1035/veh), VPS36 (ProbeSet 11739960_a_at) / RFU SYPL1 (11715823_x_at) / Fold change /veh SYPL1 (11715823_x_at) / RFU IGFBP7 (11715501_s_at) / Fold change /veh IGFBP7 (11715501_s_at) / RFU REEP3 (11722064_at) / Fold change /veh REEP3 (11722064_at) / RFU IGLL1 (11728026_x_at) / Fold change /veh IGLL1 (11728026_x_at): dose or concentration left out as unconfirmed",
  "details": "MV-4-11 cells, 48 hours",
  "data": [
    {"smiles": "Nc1ccc(-c2cccs2)cc1NC(=O)c1ccc2c(c1)cc(C1CC1)n2CCN1CCOCC1", "note": "[ACY-1035]", "values": [
      {"measurement": "Fold change /veh PIWIL2 (11732686_x_at)", "result": 0.84}
    ]}
  ]
}
